Measurements from patent publication US20090169603A1, “Adhesive Pharmaceutical Preparation” (NITTO DENKO CORPORATION, priority 2005, published 2009).
Where two headings read alike, the source gives them in different places.

Legend:
[1] = Measurement of logPow (OECD 107, n-octanol/water, shake flask method); type: physicochemical
Protocol: In this case, the “drug which is liquid at room temperature or around room temperature” means a drug which is liquid at a temperature where the adhesive pharmaceutical preparation after its production is generally preserved, namely any temperature within a temperature range of from 1 to 40° C. Within such a temperature range, the drug has such a degree of fluidity that it can cause bleeding. Viscosity of the drug is measured using a type E viscometer while keeping the drug at a predetermined temperature. According to the invention, when the viscosity of a drug at a predetermined temperature is from 0.05 to 100,000 mPa·s, the drug is liquid at the predetermined temperature. In addition, the “logPow” is an index which expresses hydrophilic property or hydrophobicity of the drug, and is a value measured on individual drugs in accordance with the method described in “OECD GUIDELINE FOR THE TESTING OF CHEMICALS 107, Adopted by the Council on 27 Jul. 1995, Partition Coefficient (n-octanol/water), Shake Flask Method)”, and the base of logarithm of logPow is 10.
The “logPow” is obtained by a calculation after partitioning a drug into water layer and n-octanol layer and determining the drug concentration of each layer by an appropriate method, in accordance with the method described in the above-mentioned guideline. The quantitative determination of drugs is not particularly limited so long as it is a method in which its determinability was verified, for example, by verifying linearity of its calibration curve, but in general, an absorptiometry, a gas chromatography or a high performance liquid chromatography is used. […] In addition, when the drug is a dissociating substance, the logPow is measured while suppressing its dissociation in accordance with the guideline. That is, the logPow is measured using a buffer of appropriate pH as the water layer under a condition of a free acid or free base. When the drug is an acidic drug, a buffer having a pH value which is lower by a factor of 1 than the pKa value of the drug is used. When the drug is a basic drug, a buffer having a pH value which is higher by a factor of 1 than the pKa value of the drug is used.
In this connection, although the measurement range of logPow is generally set from −2 to 4 according to this guideline, the measurement range of logPow can be set to −2 to 5 by increasing the determination sensitivity by making use of high sensitivity analytical methods such as a high performance liquid chromatography.
LogPow was measured in accordance with the “OECD GUIDELINE FOR THE TESTING OF CHEMICALS 107, Adopted by the Council on 27th Jul. 1995, Partition Coefficient (n-Octanol/water), Shake Flask Method)”. Water layers, determination methods and results of the LogPow measurement at the time of the measurement of LogPow are shown in Table 3.

[2] = Measurement of viscosity at 40° C. (type E viscometer); type: physicochemical
Protocol: Viscosity of the drug is measured using a type E viscometer while keeping the drug at a predetermined temperature. According to the invention, when the viscosity of a drug at a predetermined temperature is from 0.05 to 100,000 mPa·s, the drug is liquid at the predetermined temperature. In addition, the “logPow” is an index which expresses hydrophilic property or hydrophobicity of the drug, and is a value measured on individual drugs in accordance with the method described in “OECD GUIDELINE FOR THE TESTING OF CHEMICALS 107, Adopted by the Council on 27 Jul. 1995, Partition Coefficient (n-octanol/water), Shake Flask Method)”, and the base of logarithm of logPow is 10.
In addition, the viscosity of a drug at 40° C. is measured using a type E viscometer while heating the drug at 40° C.
5. Measurement of Viscosity at 40° C.
Viscosity of drugs at 40° C. was measured using a type E viscometer (type E viscometer mfd. By Tokyo Keiki, VISCONIC Type ED).

[3] = water layer pH 10 buffer, HPLC method

CN(C/C=C/C#CC(C)(C)C)Cc1cccc2ccccc12 [Terbinafine free base]
logD ([1]; n-octanol/water, water layer pH 9.2 buffer, HPLC method): > 5 | LogPow ([1]; water layer pH 9.2 buffer, HPLC method): base (>5.0) | LogPow ([1]; water layer pH 9.2 buffer, HPLC method, listed as terbinafine): > 5.0 | Viscosity [2]: 280 mPa·s

CCOCCn1c(N2CCCN(C)CC2)nc2ccccc21 [Emedastine free base, emedastine free base]
logD ([1]; n-octanol/water, water layer pH 10 buffer, HPLC method): 2.4 | LogPow [1, 3]: base (2.4) | LogPow ([1]; water layer pH 10 buffer, HPLC method, listed as emedastine free base): 2.4 | Viscosity [2]: 280 mPa·s

CC=CC(=O)N(CC)c1ccccc1C (mixture of isomers) [Crotamiton, crotamiton]
logP ([1]; n-octanol/water, water layer distilled water, HPLC method): 3.1 | LogPow ([1]; water layer distilled water, HPLC method): Crotamiton (3.1) | LogPow ([1]; water layer distilled water, HPLC method, listed as crotamiton): 3.1 | Viscosity [2]: 16 mPa·s

OCC(O)CO [Glycerol]
LogPow ([1]; water layer distilled water, titration method): −1.1

COc1ccc(CCN(C)CCCC(C#N)(c2cc(OC)c(OC)c(OC)c2)C(C)C)cc1OC (stereo not shown) [Gallopamil free base, gallopamil free base]
LogPow [1, 3]: 4.8 | Viscosity [2]: 4500 mPa·s | Viscosity ([2]; listed as gallopamil): 4,500 mPa·s
